Measurements from patent US20260144788A1, “COMPOUND FOR SHP2 PROTEIN DEGRADATION AND MEDICAL USES THEREOF” (UBIX THERAPEUTICS, INC., priority 2022, published 2026).

Molecular target: T1, SHP2 protein (Homo sapiens, UniProt Q06124)
T1 sequence (Q06124 1-593): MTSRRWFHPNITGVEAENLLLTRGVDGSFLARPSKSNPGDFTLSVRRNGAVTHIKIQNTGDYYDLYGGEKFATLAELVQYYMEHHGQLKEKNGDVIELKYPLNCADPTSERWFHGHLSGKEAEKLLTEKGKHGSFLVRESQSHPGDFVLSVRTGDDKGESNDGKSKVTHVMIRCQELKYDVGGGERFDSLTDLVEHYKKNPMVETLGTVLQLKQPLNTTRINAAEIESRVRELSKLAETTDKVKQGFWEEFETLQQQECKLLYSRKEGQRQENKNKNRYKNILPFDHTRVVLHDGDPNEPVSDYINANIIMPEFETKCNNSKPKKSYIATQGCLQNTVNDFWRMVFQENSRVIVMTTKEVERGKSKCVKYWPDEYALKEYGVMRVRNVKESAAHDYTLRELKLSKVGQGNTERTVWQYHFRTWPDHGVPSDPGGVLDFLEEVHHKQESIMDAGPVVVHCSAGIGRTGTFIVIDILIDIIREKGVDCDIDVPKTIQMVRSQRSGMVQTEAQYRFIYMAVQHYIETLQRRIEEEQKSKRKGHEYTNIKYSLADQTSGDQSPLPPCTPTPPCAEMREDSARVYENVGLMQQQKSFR
Assay: Measurement of SHP2 protein degradation in MV-4-11 cells (western blotting)
Format: cell-based
Parameters: endogenous in cells
Settings: harvested after 24 hours
Procedure: MV-4-11 cells were treated with the synthesized Example compounds, and the amount of SHP2 protein present in the cells was measured using western blotting detection. The protocol for the experiment conducted using MV-4-11 cells is as follows.
[Culture] MV-4-11 cells were resuspended in IMDM MEDIUM (Hyclone, SH30228.01), 5% FBS (Hyclone, SV30207.02), 1% Penicillin-streptomycin (Welgene, LS 202-02) media and seeded at 1×10^6/mL in 12-well plates (1 mL each).
[Compound treatment]12-well plates were treated as follows. 10 mM stock dissolved in DMSO was serially diluted 1/100 or 1/10 with media, and the compounds were treated to the cells at a final concentration of 0.01, 0.1, 1 μM or 0.001, 0.01, 0.1 μM, and harvested after 24 hours. For the negative control group, DMSO diluted 1/100 or 1/1000 in media was added (3 μL DMSO+297 μL media or 1 μL DMSO+999 μL media).
[Harvest] Each well was pipetted with a 1 mL pipette, collected in a 1.5 mL microtube, and centrifuged (500 g, 5 min, 4° C.). The supernatant was removed, washed with PBS, and centrifuged again (500 g, 5 min, 4° C.). The supernatant was removed and a pellet was prepared.
[Cell lysis and sample preparation] Lysis buffer was prepared as follows. RIPA buffer (Biosesang, RC2038-050-00)+0.5 mM PMSF (SIGMA, P7626)+1× Protease/Phosphatase Inhibitor (Cell signaling, 5872S) were added at 50 μL per tube and incubated on ice for 30 minutes (vortexed at 0 and 30 minutes). After sonication (10 sec pulse, 30 sec rest, 5 cycles, 70% amplification) and centrifugation (15,000 g, 15 min, 4° C.), only the supernatant was transferred to a microtube. RIPA buffer 7.5 μL and sample 2.5 μL were added to a 96-well plate to dilute to 1/4, and then BCA Protein Assay Kit (iNtRON, 21071) A and B were mixed in a 50:1 ratio and 200 μL each was added. After that, the plate was incubated at 37° C. for 30 minutes and left at room temperature for 10 minutes. After shaking for 10 seconds with a SYNERGY H1 microplate reader from BioTek, the absorbance was measured at 562 nm. The protein was quantified using the measured value to prepare a sample, which was then incubated at 70° C. for 10 minutes. The sample buffer used at this time is a mixture of NuPAGE or Bolt 4× sample buffer (Invitrogen) and each 10× sample reducing agent according to the gel to be used, and RIPA buffer was used for protein dilution.
[Western blotting detection] Equal amounts of samples were loaded onto NuPAGE or Bolt Bis-tris 4-12% gradient gels and run (200 V, 35 min). This was transferred to […] NC membranes using Trans-blot Turbo (BIO-RAD) (1.3 A constant, 25 V limit, 15 min), and was blocked at room temperature for 1 hour with Skim milk or Intercept Blocking Buffer (LI-COR, 927-60001):0.1% TBST=1:1. Anti-SHPTP2 Mouse (1:500 in 2% BSA/0.2% TBST, size: 70 kDa, Santacruz sc-7384) was incubated overnight at 4° C., and Anti-GAPDH Rabbit (1:2,000 in 2% BSA/0.2% TBST, size: 37 kDa, CST #2118) was incubated at room temperature for 1.5 hours or 3 hours. After washing three times for 5 minutes each with 0.2% TBST washing buffer, secondary antibodies Anti-Mouse IgG (1:5,000 in 2% BSA/0.2% TBST, CST) and IRDye® 680RD Goat anti-Rabbit IgG Secondary Antibody (1:10,000 in 2% BSA/0.2% TBST, LI-COR 926-68071) were added, and incubated on a rocker at room temperature for 45 minutes. The resultants were washed five times for 5 minutes each with 0.2% TBST washing buffer, and detected using LI-COR's Odyssey. GAPDH was detected with a 700 nm channel, and SHPTP2 was detected using SuperSignal West Pico PLUS Chemiluminescent Substrate.

SHP2% degradation (0.01 μM) [%] | SHP2% degradation (0.1 μM) [%] | SMILES
64.4 | 96.6 | Cc1ncsc1-c1ccc(CNC(=O)[C@@H]2C[C@@H](O)CN2C(=O)[C@@H](NC(=O)C2(F)CC2)C(C)(C)C)c(O[C@H]2CC[C@H](C(=O)N3CCC(Nc4cccc(Sc5cnc(N6CCC(C)(CN)CC6)cn5)c4Cl)CC3)CC2)c1 [Example 17, (2S,4R)—N-(2-(((1R,4S)-4-(4-((3-((5-(4-(aminomethyl)-4-methylpiperidin-1-yl)pyrazin-2-yl)thio)-2-chlorophenyl)amino)piperidine-1-carbonyl)cyclohexyl)oxy)-4-(4-methylthiazol-5-yl)benzyl)-1-((S)-2-(1-fluorocyclopropane-1-carboxamido)-3,3-dimethylbutanoyl)-4-hydroxypyrrolidine-2-carboxamide]
63.2 | 98.4 | Cc1ncsc1-c1ccc(CNC(=O)[C@@H]2C[C@@H](O)CN2C(=O)[C@@H](NC(=O)C2(F)CC2)C(C)(C)C)c(O[C@H]2CC[C@H](C(=O)N3CC(CNc4cccc(Sc5cnc(N6CCC(C)(CN)CC6)cn5)c4Cl)C3)CC2)c1 [Example 18, (2S,4R)—N-(2-(((1R,4S)-4-(3-(((3-((5-(4-(aminomethyl)-4-methylpiperidin-1-yl)pyrazin-2-yl)thio)-2-chlorophenyl)amino)methyl)azetidine-1-carbonyl)cyclohexyl)oxy)-4-(4-methylthiazol-5-yl)benzyl)-1-((S)-2-(1-fluorocyclopropane-1-carboxamido)-3,3-dimethylbutanoyl)-4-hydroxypyrrolidine-2-carboxamide]
50.4 | 95.7 | Cc1ncsc1-c1ccc(CNC(=O)[C@@H]2C[C@@H](O)CN2C(=O)[C@@H](NC(=O)C2(F)CC2)C(C)(C)C)c(O[C@H]2CC[C@H](C(=O)N3CCC(CNc4cccc(Sc5cnc(N6CCC(C)(CN)CC6)cn5)c4Cl)CC3)CC2)c1 [Example 19, (2S,4R)—N-(2-(((1R,4S)-4-(4-(((3-((5-(4-(aminomethyl)-4-methylpiperidin-1-yl)pyrazin-2-yl)thio)-2-chlorophenyl)amino)methyl)piperidine-1-carbonyl)cyclohexyl)oxy)-4-(4-methylthiazol-5-yl)benzyl)-1-((S)-2-(1-fluorocyclopropane-1-carboxamido)-3,3-dimethylbutanoyl)-4-hydroxypyrrolidine-2-carboxamide]

Further lines, the compound ahead of its results:

SMILES | SHP2% degradation (0.01 μM) [%] | SHP2% degradation (0.1 μM) [%]
Cc1ncsc1-c1ccc(CNC(=O)[C@@H]2C[C@@H](O)CN2C(=O)[C@@H](NC(=O)C2(F)CC2)C(C)(C)C)c(O[C@H]2CC[C@H](C(=O)N3CC(Nc4cccc(Sc5cnc(N6CCC(C)(N)CC6)cn5)c4Cl)C3)CC2)c1 [Example 12, (2S,4R)—N-(2-(((1R,4S)-4-(3-((3-((5-(4-amino-4-methylpiperidin-1-yl)pyrazin-2-yl)thio)-2-chlorophenyl)amino)azetidine-1-carbonyl)cyclohexyl)oxy)-4-(4-methylthiazol-5-yl)benzyl)-1-((S)-2-(1-fluorocyclopropane-1-carboxamido)-3,3-dimethylbutanoyl)-4-hydroxypyrrolidine-2-carboxamide] | 83.7 | 98.6
Cc1ncsc1-c1ccc(CNC(=O)[C@@H]2C[C@@H](O)CN2C(=O)[C@@H](NC(=O)C2(F)CC2)C(C)(C)C)c(O[C@H]2CC[C@H](C(=O)N3CC(Nc4cccc(Sc5cnc(N6CCC7(CC6)CO[C@@H](C)[C@H]7N)cn5)c4Cl)C3)CC2)c1 [Example 13, (2S,4R)—N-(2-(((1R,4S)-4-(3-((3-((5-((3S,4S)-4-amino-3-methyl-2-oxa-8-azaspiro[4.5]decan-8-yl)pyrazin-2-yl)thio)-2-chlorophenyl)amino)azetidine-1-carbonyl)cyclohexyl)oxy)-4-(4-methylthiazol-5-yl)benzyl)-1-((S)-2-(1-fluorocyclopropane-1-carboxamido)-3,3-dimethylbutanoyl)-4-hydroxypyrrolidine-2-carboxamide] | 93.8 | 99.5
Cc1ncsc1-c1ccc(CNC(=O)[C@@H]2C[C@@H](O)CN2C(=O)[C@@H](NC(=O)C2(F)CC2)C(C)(C)C)c(O[C@H]2CC[C@H](C(=O)N3CC(Nc4cccc(Sc5cnc(N6CCC7(CC6)Cc6ccccc6[C@H]7N)cn5)c4Cl)C3)CC2)c1 [Example 14, (2S,4R)—N-(2-(((1R,4S)-4-(3-((3-((5-((S)-1-amino-1,3-dihydrospiro[indene-2,4′-piperidin]-1′-yl)pyrazin-2-yl)thio)-2-chlorophenyl)amino)azetidine-1-carbonyl)cyclohexyl)oxy)-4-(4-methylthiazol-5-yl)benzyl)-1-((S)-2-(1-fluorocyclopropane-1-carboxamido)-3,3-dimethylbutanoyl)-4-hydroxypyrrolidine-2-carboxamide] | 1.2 | 85.1
Cc1ncsc1-c1ccc(CNC(=O)[C@@H]2C[C@@H](O)CN2C(=O)[C@@H](NC(=O)C2(F)CC2)C(C)(C)C)c(O[C@H]2CC[C@H](C(=O)N3CC(Nc4cccc(Oc5cnc(N6CCC(C)(CN)CC6)cn5)c4Cl)C3)CC2)c1 [Example 16, (2S,4R)—N-(2-(((1R,4S)-4-(3-((3-((5-(4-(aminomethyl)-4-methylpiperidin-1-yl)pyrazin-2-yl)oxy)-2-chlorophenyl)amino)azetidine-1-carbonyl)cyclohexyl)oxy)-4-(4-methylthiazol-5-yl)benzyl)-1-((S)-2-(1-fluorocyclopropane-1-carboxamido)-3,3-dimethylbutanoyl)-4-hydroxypyrrolidine-2-carboxamide] | −30.1 | 94.3
Cc1ncsc1-c1ccc(CNC(=O)[C@@H]2C[C@@H](O)CN2C(=O)[C@@H](NC(=O)C2(F)CC2)C(C)(C)C)c(O[C@H]2CC[C@H](C(=O)N3CC(Nc4nccc(Sc5cnc(N6CCC(C)(CN)CC6)cn5)c4Cl)C3)CC2)c1 [Example 20, (2S,4R)—N-(2-(((1R,4S)-4-(3-((4-((5-(4-(aminomethyl)-4-methylpiperidin-1-yl)pyrazin-2-yl)thio)-3-chloropyridin-2-yl)amino)azetidine-1-carbonyl)cyclohexyl)oxy)-4-(4-methylthiazol-5-yl)benzyl)-1-((S)-2-(1-fluorocyclopropane-1-carboxamido)-3,3-dimethylbutanoyl)-4-hydroxypyrrolidine-2-carboxamide] | 78.8 | 98.2
